For 27 molecules, IC50 results are on record in ChEMBL document CHEMBL4350989, “Discovery of 2,4-diarylaminopyrimidine derivatives bearing dithiocarbamate moiety as novel FAK inhibitors with antitumor and anti-angiogenesis activities” (Eur J Med Chem, 2019).

The test system of one test is HCT-116. In words: Antiproliferative activity against human HCT116 cells overexpressing FAK assessed as reduction in cell viability after 72 hrs by MTS assay. The note with it: HCT-116, 72 h. On the technique in general: Formazan colour is commonly taken as a measure of viable cells.
The subject of the next test is PC-3. In words: Antiproliferative activity against human PC3 cells overexpressing FAK assessed as reduction in cell viability after 72 hrs by MTS assay. The note with it: PC-3, 72 h.
A further test relates to U-87 MG. The experiment in a line: Antiproliferative activity against human U87MG cells overexpressing FAK assessed as reduction in cell viability after 72 hrs by MTS assay.
The next test has as its system MCF7. In words: Antiproliferative activity against human MCF7 cells overexpressing FAK assessed as reduction in cell viability after 72 hrs by MTS assay. Particulars: MCF7, 72 h.
The test system of the next test is MCF-10A. The experiment in a line: Cytotoxicity against human MCF10A cells assessed as reduction in cell viability after 72 hrs by MTS assay.

The term IC50 denotes the point on the concentration scale where inhibition reaches its midpoint. For `CNC(=O)c1ccccc1Nc1nc(Nc2ccc(C(=O)N3CCN(C(=S)SCCC4OCCO4)CC3)cc2)ncc1Cl`, the IC50 in the test with HCT-116 worked out at 50 nM; with PC-3 it was 690 nM; with U-87 MG it was 2740 nM; in the test with MCF7, 210 nM.
In the case of `CNC(=O)c1ccccc1Nc1nc(Nc2ccc(C(=O)N3CCN(C(=S)SCCC#N)CC3)cc2)ncc1Cl`, the IC50 in the test on HCT-116 is 30 nM; in the test on PC-3, 170 nM; with U-87 MG it was 1730 nM; in the test with MCF7, 7170 nM.
With `CNC(=O)c1ccccc1Nc1nc(Nc2ccc(C(=O)N3CCN(C(=S)SCCC(=O)OC)CC3)cc2)ncc1Cl`, the IC50 is 260 nM with HCT-116, 1990 nM in the test with PC-3, 1310 nM with U-87 MG and 2290 nM in the test on MCF7.
On the same counts, the results for `CNC(=O)c1ccccc1Nc1nc(Nc2ccc(C(=O)N3CCN(C(=S)SCCN4CCCCC4)CC3)cc2)ncc1Cl` are 10 nM, 380 nM, 280 nM and 270 nM.
On the same counts, the results for `CNC(=O)c1ccccc1Nc1nc(Nc2ccc(C(=O)N3CCN(C(=S)SCCOC)CC3)cc2)ncc1Cl` are 40 nM, 460 nM, 610 nM and 300 nM.
In the same order, the values of `CNC(=O)c1ccccc1Nc1nc(Nc2ccc(C(=O)N3CCN(C(=S)SCCN4CCN(C)CC4)CC3)cc2)ncc1Cl` are 10 nM, 260 nM, 620 nM and 220 nM.
With `CNC(=O)c1ccccc1Nc1nc(Nc2ccc(C(=O)N3CCN(C(=S)SCCO)CC3)cc2)ncc1Cl`, the IC50 in the test on HCT-116 is 20 nM; with PC-3, 240 nM; with U-87 MG, 710 nM; in the test with MCF7 it was 110 nM.
As to `CNC(=O)c1ccc(Nc2ncc(C(F)(F)F)c(NCc3nccnc3N(C)S(C)(=O)=O)n2)cc1` [DEFACTINIB], the IC50 in the test on HCT-116 is 2650 to 3020 nM; with PC-3, greater than 20000 nM; with U-87 MG it was 10200 to 10300 nM; in the test with MCF7, 8970 to 9760 nM; in the test on MCF-10A it was 18400 nM.
As to `CNC(=O)c1ccccc1Nc1nc(Nc2ccc(C(=O)N3CCN(C(=S)SCC(C)O)CC3)cc2)ncc1Cl` (stereo not given), the IC50 came out at 30 nM in the test on HCT-116, 200 nM with PC-3, 870 nM in the test with U-87 MG and 110 nM in the test with MCF7.
As for `CNC(=O)c1ccccc1Nc1nc(Nc2ccc(C(=O)N3CCN(C(=S)SCCN(C)C)CC3)cc2)ncc1Cl`, the IC50 with HCT-116 was 4 nM; with PC-3, 90 nM; in the test with U-87 MG it was 200 to 360 nM; with MCF7 it was 80 to 90 nM; in the test with MCF-10A, 720 nM.
In the same order, the values of `CNC(=O)c1ccccc1Nc1nc(Nc2ccc(N3CCOCC3)cc2OC)ncc1Cl` are 290 to 460 nM, 1210 to 1680 nM, 1580 to 1660 nM, 450 to 560 nM and 8760 nM.
On the same counts, the results for `CNC(=O)c1ccccc1Nc1nc(Nc2ccc(C(=O)N3CCN(C(=S)SCCN(C)C)CC3)cc2)ncc1OC` are 160 nM, 920 nM, 1610 nM, 360 nM and 2430 nM.
With `CNC(=O)c1ccccc1Nc1nc(Nc2ccc(C(=O)N3CCN(C(=S)SCc4ccccc4)CC3)cc2)ncc1Cl`, the IC50 is 50 nM with HCT-116, 17000 nM in the test on PC-3, 3360 nM with U-87 MG and greater than 20000 nM in the test on MCF7.
Consider `CNC(=O)c1ccccc1Nc1nc(Nc2ccc(C(=O)N3CCN(C(=S)SCc4ccccn4)CC3)cc2)ncc1Cl`, for which the IC50 with HCT-116 is 60 nM; with PC-3, 400 nM; in the test on U-87 MG it was 2530 nM; in the test with MCF7, 390 nM.
On the same counts, the results for `CNC(=O)c1ccccc1Nc1nc(Nc2ccc(C(=O)N3CCN(C(=S)SCCN4CCOCC4)CC3)cc2)ncc1Cl` are 3520 nM, 230 nM, 470 nM and 330 nM.
Take `CNC(=O)c1ccccc1Nc1ccnc(Nc2ccc(C(=O)N3CCN(C(=S)SCCN(C)C)CC3)cc2)n1`: the IC50 in the test on HCT-116 is 440 nM; with PC-3, 3010 nM; in the test with U-87 MG, 2800 nM; with MCF7, 2010 nM; with MCF-10A, 6190 nM.
As to `CCOC(=O)C(=O)CSC(=S)N1CCN(C(=O)c2ccc(Nc3ncc(Cl)c(Nc4ccccc4C(=O)NC)n3)cc2)CC1`, the IC50 is 60 nM with HCT-116, 470 nM in the test on PC-3, 1160 nM in the test on U-87 MG and 520 nM in the test on MCF7.
Consider `CNC(=O)c1ccccc1Nc1nc(Nc2ccc(C(=O)N3CCN(C(=S)SCCN4CCCC4)CC3)cc2)ncc1Cl`, for which the IC50 in the test on HCT-116 was 10 nM; with PC-3, 220 nM; in the test with U-87 MG, 200 nM; with MCF7, 160 nM.
As to `CNC(=O)c1ccccc1Nc1nc(Nc2ccc(C(=O)N3CCN(C(=S)SCCS(C)(=O)=O)CC3)cc2)ncc1Cl`, the IC50 in the test with HCT-116 is 30 nM; in the test on PC-3, 520 nM; in the test with U-87 MG, 920 nM; in the test on MCF7, 400 nM.
In the case of `CNC(=O)c1ccccc1Nc1nc(Nc2ccc(C(=O)N3CCN(C(=S)SCCN(C)C)CC3)cc2)ncc1C`, the IC50 in the test with HCT-116 came to 10 nM; with PC-3 it was 270 nM; in the test with U-87 MG it was 280 nM; in the test on MCF7 it was 80 nM; with MCF-10A, 1080 nM.
Consider `CNC(=O)c1ccccc1Nc1nc(Nc2ccc(C(=O)N3CCN(C(=S)SCC4CCOCC4)CC3)cc2)ncc1Cl`, for which the IC50 in the test on HCT-116 is 90 nM; with PC-3 it was 310 nM; with U-87 MG it was greater than 20000 nM; in the test on MCF7, 540 nM.
In the same order, the values of `CNC(=O)c1ccccc1Nc1nc(Nc2ccc(C(=O)N3CCN(C(=S)SCc4cccnc4)CC3)cc2)ncc1Cl` are 30 nM, 450 nM, 1530 nM and 390 nM.
On the same counts, the results for `CNC(=O)c1ccccc1Nc1nc(Nc2ccc(C(=O)N3CCN(C(=S)SCc4ccncc4)CC3)cc2)ncc1Cl` are 60 nM, 360 nM, 1700 nM and 770 nM.
As to `CCOC(=O)CSC(=S)N1CCN(C(=O)c2ccc(Nc3ncc(Cl)c(Nc4ccccc4C(=O)NC)n3)cc2)CC1`, the IC50 with HCT-116 was 4690 nM; in the test with PC-3 it was 3530 nM; in the test with U-87 MG it was 7540 nM; with MCF7, 9930 nM.
In the case of `CNC(=O)c1ccccc1Nc1nc(Nc2ccc(C(=O)N3CCN(C(=S)SCCc4ccccc4)CC3)cc2)ncc1Cl`, the IC50 in the test on HCT-116 is 3780 nM; in the test with PC-3, greater than 20000 nM; in the test on U-87 MG it was greater than 20000 nM; with MCF7, 11700 nM.
Take `CNC(=O)c1ccccc1Nc1nc(Nc2ccc(C(=O)N3CCN(C(=S)SCCN(C)C)CC3)cc2)ncc1F`: the IC50 came out at 30 nM in the test on HCT-116; 360 nM in the test on PC-3; 690 nM in the test with U-87 MG; 160 nM with MCF7; 1750 nM in the test with MCF-10A.
`C=CCSC(=S)N1CCN(C(=O)c2ccc(Nc3ncc(Cl)c(Nc4ccccc4C(=O)NC)n3)cc2)CC1`: the IC50 with HCT-116 was 110 nM; in the test on PC-3, 1020 nM; in the test with U-87 MG, greater than 20000 nM; in the test on MCF7, 1380 nM.
